Article PMC11579541, “In vitro, in vivo, and in silico approaches for evaluating the preclinical DMPK profiles of ammoxetine, a novel chiral serotonin and norepinephrine reuptake inhibitor” (Frontiers in Pharmacology, 2024)

Experiments:
[1] = Hepatic microsome stability assay, HLM; type: in vitro ADME, human; details: human, liver microsomes, pH 7.4; 1 μmol/L, 0.2 g/L microsomes, NADPH
Procedure: (§1) A hepatic microsome stability assay was conducted to investigate the metabolic disposition of ammoxetine. In this assay, 100 μL of ammoxetine (2.5 μmol/L) was incubated at 37°C with 100 μL of liver microsomes (RLM, DLM, MLM, or HLM) formulated in a 5 mmol/L dipotassium hydrogen phosphate (K2HPO4) buffer at pH 7.4. The concentration of microsomes was 0.5 g/L. To initiate the incubations, 50 μL of NADPH solution preincubated at 37°C was added. […] Parallel triplicate samples were prepared for each time point, including 0, 2, 5, 10, 15, 30, 60, 90, and 120 min. To stop the reactions at each time point, 250 μL of ice-cold precipitating agent (acetonitrile/methanol, 1:1, v/v) containing 500 ng/mL of L-phencynonate (IS) was added to the incubation mixture. The samples were vortexed for 2 min at 4°C and then centrifuged at 13,800×g for 10 min. The supernatants were analyzed using an LC-MS-MS approach. […]
(§2) In Formula 3, t1/2 (min) represents the half-life of ammoxetine in liver microsomes. It is calculated by dividing −0.693 by the resulting slope (k e) obtained from a natural logarithm plot of the remaining concentration of ammoxetine against incubation time. […]

HLM = assay: Hepatic microsome stability assay, HLM; type: in vitro ADME, human; details: predicted hepatic clearance
Procedure: as §1, §2

[2] = Hepatic microsome stability assay, DLM; type: in vitro ADME, dog; details: beagle, dog, liver microsomes, pH 7.4; 1 μmol/L, 0.2 g/L microsomes, NADPH
Procedure: as §1, §2

DLM = assay: Hepatic microsome stability assay, DLM; type: in vitro ADME, dog; details: predicted hepatic clearance
Procedure: as §1, §2

[3] = PPB assay by ultrafiltration, human plasma; type: in vitro ADME, humans
Procedure: The PPB of ammoxetine was determined using the ultrafiltration method. Triplicate samples of rat, dog, or human plasma were spiked with ammoxetine at three final concentrations (50, 150, and 450 ng/mL). The spiked plasma samples were then incubated in a 37°C air-bath shaker for 1 h until equilibrium was reached. After incubation, 400 μL of the plasma samples were transferred to pre-saturated ultrafiltration devices. These devices were subsequently centrifuged at 13,800×g and 20°C for 20 min to separate the unbound ammoxetine. 100 μL of the test samples were taken and mixed with 100 μL of the IS, L-phencynonate (50 ng/mL), and 300 μL of methanol. Following centrifugation at 13,800×g for 10 min, the supernatants were used to determine the total and free concentrations of ammoxetine in the plasma (C t , C f ) using an LC-MS-MS method. The PPB rate (%) of ammoxetine was calculated by dividing (C t −C f ) by C t .

CYP 2D6 = CYP 2D6 (Homo sapiens, UniProt P10635); assay: Phenotyping with recombinant human CYP 2D6; type: in vitro ADME; set-up: purchased BD (Woburn, USA); details: 5 μmol/L, 25 pmol/mL CYP, 1 h
Sequence of CYP 2D6 (P10635 whole entry): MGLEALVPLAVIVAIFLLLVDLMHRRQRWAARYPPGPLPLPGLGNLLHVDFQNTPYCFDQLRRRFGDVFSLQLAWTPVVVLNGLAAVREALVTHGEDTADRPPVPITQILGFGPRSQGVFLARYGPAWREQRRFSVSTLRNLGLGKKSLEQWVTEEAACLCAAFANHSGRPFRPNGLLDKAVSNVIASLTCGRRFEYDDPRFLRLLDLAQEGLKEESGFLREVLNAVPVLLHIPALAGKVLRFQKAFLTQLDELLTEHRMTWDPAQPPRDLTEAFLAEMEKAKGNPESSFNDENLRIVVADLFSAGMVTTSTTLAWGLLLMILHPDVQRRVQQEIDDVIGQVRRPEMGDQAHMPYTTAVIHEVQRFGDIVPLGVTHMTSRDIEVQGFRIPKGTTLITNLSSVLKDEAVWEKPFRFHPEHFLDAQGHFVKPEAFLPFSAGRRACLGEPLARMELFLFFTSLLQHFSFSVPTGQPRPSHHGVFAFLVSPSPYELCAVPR
Procedure: Ammoxetine (final concentration 5 μmol/L) was incubated with recombinant human CYP 3A4, CYP 1A2, CYP 2C9, CYP 2C19, and CYP 2D6 (final concentration 25 pmol/mL) in a 5 mmol/L K2HPO4 buffer at pH 7.4. The incubations were performed in quintuplicate. NADPH (final concentration 1 mmol/L) was added to initiate the incubation process. The mixture was then incubated at 37°C for 1 h. To stop the reaction, 200 μL of ice-cold acetonitrile/methanol (1:1, v/v) containing 500 ng/mL of L-phencynonate (IS) was added. The samples were vortexed for 2 min and centrifuged at 13,800×g and 4°C for 10 min. The supernatants obtained were analyzed using an LC-MS-MS method. To establish appropriate controls, zero-time controls and blank controls in the absence of NADPH were set up in parallel.

half-life at 1 μmol/L [1]: 4.16 ± 0.101 h
CL h (HLM): 9.05 ± 0.13 mL/min/kg
half-life at 1 μmol/L [2]: 2.31 ± 0.0493 h
CL h (DLM): 16.64 ± 0.17 mL/min/kg
fraction unbound at 1 h, 50 ng/mL ([3]; 50 ng/mL, read-out: Percentage of ammoxetine-protein binding rate (%) (converted)): 0.415
fraction unbound at 1 h, 150 ng/mL ([3]; 150 ng/mL, read-out: Percentage of ammoxetine-protein binding rate (%) (converted)): 0.503
fraction unbound at 1 h, 450 ng/mL ([3]; 450 ng/mL, read-out: Percentage of ammoxetine-protein binding rate (%) (converted)): 0.45
fraction unbound at 1 h ([3]; approximate range over 50-450 ng/mL, read-out: PPB rate): 0.4 to 0.5
Transformation ratio% (CYP 2D6): 14.09±1.89%
residuary concentration of ammoxetine, Mean±SD (CYP 2D6): 5.89±0.13
Structure (SMILES): CNCC[C@H](Oc1cccc2c1OCO2)c1cccs1 [ammoxetine]
